Reference: patent US20140050779A1, “[…]-2 INHIBITORS AND USES THEREOF” (SINGAPORE HEALTH SERVICES PTE. LTD., priority 2011, published 2014)
“Also recorded” adds a separate entry of the source.

How the values were obtained:
Format in all cases: cell-based
TG-2 [1] = experiment: Western blot of TG proteins in human scleral fibroblasts after muscarinic agents
Protocol: (§1) All cells used in examples described herein were between passages 2-4. Passaged cells were plated at a concentration of 2×10^5/mL into 6 well plates containing DMEM with 10% FBS. The cells were seen to attach to the bottom of the culture wells after 4 hours. Old media was removed from wells and 1 mL of drug was added with fresh full medium and incubated at 37° C. Fresh drugs were replaced daily consecutively for the next 5 days to avoid oxidation. The drugs/media was removed and wells were washed twice with 1×PBS. 200 μl of RIPA lysis buffer was added per well and incubated for 5 minutes and cells were scrapped into an eppendorf tube. The cells were stored at −20° C. until sonication. The cells were sonicated on ice thrice at 20% output power for 5 seconds each time and rested 1 minute in between each turn. Cell debris was spun down at 12000 rpm for 20 minutes. The supernatant was poured into a new eppendorf tube and cell concentrations were determined using the Dc Protein assay Kit (Bio-Rad, MA). Passaged cells were plated at a concentration of 1×10^5 into 6 well plates containing DMEM with 10% FBS. The cells were seen to attach to the bottom of the culture wells after 4 hours. Freshly prepared muscarinic agents' at base line, 0.1, 1, 10 and 100 μM concentrations were added for 5 days (Table 2). The culture medium was removed and fresh medium containing the same muscarinic drug added every day to avoid drug changes such as atropine oxidation. Cell lysate was collected for relative quantitative (q) PCR and protein analysis at day 5.
(§2) The cells were lysed by sonification in 1×RIPA lysis buffer (santa cruz biotechnology, Sc-24948) with 10 μl PMSF solution, 10 μl sodium orthovanadate solution and 20 μl protease inhibitor cocktail solution. After centrifugation at 20,000×g at 4° C. for 20 minutes, and the supernatant collected. The protein content in the supernatants was measured using the DC Protein Assay kit (Bio-Rad, MA) following the manufacturer's instructions. Samples were stored at −80° C. until assayed.
(§3) The mouse and human scleral fibroblasts were treated with atropine or carbachol at 0.01, 0.1, 1, 5 and 10 μM concentrations for 5 days. Following 5 days of treatment, the total cellular protein was extracted from these cells and TG proteins detected via Western blot analysis.
Human and, mouse scleral fibroblast proteins in the supernatant were separated by SDS-PAGE, transferred to nitrocellulose membranes, blocked in 5% BSA in TBST (10 mM Tris-HCl [pH 8.0], 150 mM NaCl, and […] Tween-20) for 2 hours at room temperature, and incubated with the same anti-TG-2 antibody described herein at a dilution of 1:1000 and anti β-tubulin antibodies used as a positive control, for 1 hour at room temperature. […]

TG-2 [2] = experiment: Western blot of TG proteins in mouse scleral fibroblasts after muscarinic agents
Protocol: as §1, §2, §3
Human and, mouse scleral fibroblast proteins in the supernatant were separated by SDS-PAGE, transferred to nitrocellulose membranes, blocked in 5% BSA in TBST (10 mM Tris-HCl [pH 8.0], 150 mM NaCl, and […] Tween-20) for 2 hours at room temperature, and incubated with the same anti-TG-2 antibody described herein at a dilution of 1:1000 and anti β-tubulin antibodies used as a positive control, for 1 hour at room temperature. The membranes were washed 3 times in TBST and incubated with HRP-conjugated secondary antibody (Chemicon International) at a dilution of 1:2500 for 1 hour at room temperature. Immunoreactive bands were visualized using the enhanced chemiluminescence method (GE Healthcare, Buckinghamshire, UK). The membrane was wrapped in plastic and placed against an X-ray film to expose for an appropriate length of time (30 seconds-5 minutes).

TG-2 [3] = experiment: TG-2 colorimetric microassay (transamidase activity) in lysate of treated mouse scleral fibroblasts; details: for transamidase activity of endogenous cellular TG-2: mouse scleral fibroblasts, 0.1, 1, 10 and 100 μM for 5 days, concentration-dependent
Protocol: as §1, with “The cells were seen to attach to the bottom of the culture wells after 4 hours.” left out
This assay was designed to assess the cross-linking activity of TG-2 between two proteins. TG activity was measured with TG-2 colorimetric Microassay kit (TG-Covtest, Covalab, Cambridge, UK). 150-200 μg of total protein was used per well for the TG-2 assay. Transglutaminase standards (Sigma) were used as a positive control. EDTA was used to inhibit the enzyme activity as a negative control.
The approximate volume of reagents to use, the wavelengths to use to read absorbance, the incubation times were determined from a previous study that have carried out experiments with similar principles as described in Perez Alea M, Kitamura M, Martin G, Thomas V, Hitomi K, El Alaoui S., “Development of an isoenzyme-specific colorimetric assay for tissue transglutaminase 2 cross-linking activity”, Anal Biochem. 2009 Jun. 15; 389(2):150-6, Epub 2009 March 24. All reagents used and protein coated plates were part of the kit. Biotin cadaverine was reconstituted with 6 ml of deionized water and 90 μl was added into each well of the 96 well plate that comes coated with CBZ-GLN-GLY. The rest of the steps were followed as in the manufacturer's instructions and finally absorbance was read at 450 nm using a microplate reader (TECAN, Austria). All incubations were performed with gentle shaking on a laboratory orbital shaker.
The TG-2 colorimetric assay serves as a high throughput and quantitative assay to assess transamidase activity. […] In vivo studies with these drugs were also conducted to determine the effect on myopia development (see FIGS. 14 and 15).

[4] = 0.01-10 μM for 5 days, Western blot
[5] = specific muscarinic antagonists

Row | SMILES | TG-2 protein level (TG-2 [1]; [4]) | TG-2 protein level (TG-2 [2]; [4]) | TG-2 activity, strongest reduction (TG-2 [3]; mouse scleral fibroblasts, 0.1 μM, saturated at 1, 10 and 100 μM) | transamidase activity of endogenous cellular TG-2 (TG-2 [3]) | TG-2 protein level (TG-2 [1]; [5]) | TG-2 protein level (TG-2 [2]; [5]) | TG-2 activity, strongest reduction among the antagonists (TG-2 [3]; mouse scleral fibroblasts) | TG2 activity as compared to atropine (TG-2 [3]; mouse scleral fibroblasts, high concentration (100 μM))
1 | CN1[C@@H]2CC[C@H]1C[C@@H](OC(=O)C(CO)c1ccccc1)C2 (stereo partly drawn) [atropine] | reduced | reduced; also recorded: reduction | most significantly reduced | reduced |  |  |  | 
2 | C[C@@H]1OC(=O)[C@H]2C[C@H]3CCCC[C@@H]3[C@@H](/C=C/[C@H]3CCC[C@H](C)N3C)[C@@H]12 [himbacine] |  |  |  | reduced | significantly reduced | significantly reduced | most significantly reduced | most significantly reduced
